# Results from patent publication EP0670315A1, “Triazole oxime derivatives having antimycotic acitivity” (priority 1994, dated 1995).
# Where two headings read alike, the source gives them in different places.
# Experiments:
# [1] = test system: Candida albicans strain IFM40009; assay: Treatment of infection, protocol 2: mice infected with Candida albicans, oral treatment, survival; type: in vivo; conditions: ICR male mice, i.v. infection 1 × 10⁶ cells, oral once after an hour of infection, survival at 7th day, Litchfield-Wilcoxon
# Procedure: (§1) Mice infected with Candida albicans were administered selected compounds of the invention orally and their therapeutic effect was measured. Stated specifically, ICR male mice (4-wk old) in groups each consisting of 10 animals were injected with Candida albicans strain IFM40009 by injecting it into the tail vein at a concentration of 1 × 10⁶ cells per animal. Each test compound was administered orally to the mice once after an hour of infection. The number of mice that survived at the 7th day of the infection was counted (the day of infection was day "zero") and the ED₅₀ of each test compound was calculated by the Litchfield-Wilcoxon method to estimate its therapeutic effect.
# [2] = test system: Aspergillus fumigatus strain IFM4942; assay: Minimum Inhibitory Concentration (MIC), agar plate dilution method; type: cell-based; conditions: Sabouraud's dextrose agar, 30°C for 2 days, visual growth
# Procedure: (§2) MIC measurements were conducted by an agar plate dilution method. Stated specifically, Aspergillus fumigatus strains IFM0063 and IFM4942 were cultured on a potato dextrose agar medium at 27°C for 10 days, and the growing conidia were suspended in a sterile physiological saline containing 0.05% Tween 80 to give a concentration of 10⁸ - 10⁹ conidia per ml. The suspension was conditioned in a Sabouraud's dextrose broth medium at a concentration of 10⁵ spores per ml and a 5-µl aliquot of the culture was inoculated into a drug-containing Sabouraud's dextrose agar medium and cultured at 30°C for 2 days. The growth of fungi was observed visually and the minimum concentration of the test drug that could inhibit the fungal growth was designated as its MIC.
# [3] = test system: Aspergillus fumigatus strain IFM0063; assay: as above; type: cell-based; conditions: Sabouraud's dextrose agar, 30°C for 2 days, visual growth
# Procedure: as §2
# [4] = test system: Aspergillus fumigatus strain IFM41944; assay: Treatment of infection, protocol 1: mice infected with Aspergillus fumigatus, oral treatment, survival; type: in vivo; conditions: for ED50: Aspergillus fumigatus, IFM41944, ICR male mice, i.v. infection 1 × 10⁷ conidia, oral one hour after infection and following four days once a day, survival at 7th day, Litchfield-Wilcoxon, read-out: ED₅₀
# Procedure: as §1, with “with Aspergillus fumigatus” for “with Candida albicans”, “strain IFM41944” for “strain IFM40009”, “× 10⁷ conidia” for “× 10⁶ cells”, “mice one hour” for “mice once”, “after the infection and for the following four continuous days on a once-a-day basis.” for “after an hour of infection.”
# [5] = Toxicity test, repeated oral administration to mice; type: in vivo; conditions: 4-wk old mice, 5 consecutive days, 100 mg/kg
# Procedure: The four selected compounds of the invention (those prepared in Examples 1, 2, 9 and 30) were administered orally to 4-wk old mice for 5 consecutive days at a dose of 100 mg/kg.
# [6] = reported in prior art; cited from earlier work
# [7] = test system: Candida albicans strain IFM40009; assay: Treatment of infection, protocol 3: cyclophosphamide-immunosuppressed mice infected with Candida albicans, oral treatment, survival; type: in vivo; conditions: ICR male mice immunosuppressed with cyclophosphamide 100 mg/kg i.p. twice, i.v. infection 1 × 10⁶ cells, oral once after an hour of infection, survival at 7th day, read-out: ED₅₀
# Procedure: Experimentally prepared immunosuppressed mice were infected with Candida albicans; they were then administered selected compounds of the invention orally and the therapeutic effect of the compounds was measured.
# Stated specifically, ICR male mice (4-wk old) in groups each consisting of 10 animals were administered cyclophosphamide intraperitoneally at a dose of 100 mg/kg; four days later, the mice were similarly administered cyclophosphamide intraperitoneally to be rendered experimentally immunosuppressed. Simultaneously with the second shot of cyclophosphamide, Candida albicans strain IFM40009 was administered to the tail vein of each animal at a concentration of 1 × 10⁶ cells per animal to induce infection. Each test compound was administered orally to the mice once after an hour of infection.
# The number of mice that survived at the 7th day of the infection was counted (the day of infection was day "zero") and the ED₅₀ of each test compound was calculated by the Litchfield-Wilcoxon method to estimate its therapeutic effect.
# [8] = Solubility (usefulness as injections); type: physicochemical
# [9] = Aspergillus fumigatus, IFM4942, 48 h, read-out: MIC
# [10] = Aspergillus fumigatus, IFM0063, 48 h, read-out: MIC
SMILES,ED50 [1],"MIC [2, 9]","MIC [3, 10]",other results
CCC(=NOCCBr)C1(C(O)(Cn2cncn2)c2ccc(F)cc2F)CC1 (centres unmarked) [Example 55],14.7 mg/kg,3.13 µg/mL,3.13 µg/mL,–
CCC(=NOC)C1(C(O)(Cn2cncn2)c2ccc(F)cc2F)CC1 (centres unmarked) [Example 11],–,3.13 µg/mL,3.13 µg/mL,–
CCC(=NOCn1cncn1)C1(C(O)(Cn2cncn2)c2ccc(F)cc2F)CC1 (centres unmarked) [Example 58],13.2 mg/kg,–,–,–
CCCC(=NOC)C1(C(O)(Cn2cncn2)c2ccc(F)cc2F)CC1 (centres unmarked) [Example 9],–,6.25 µg/mL,6.25 µg/mL,ED50 [4]: 20.2 mg/kg; evidence for abnormality [5]: no evidence for abnormality
CCC(=NOCOC)C1(C(O)(Cn2cncn2)c2ccc(F)cc2F)CC1 (centres unmarked) [Example 10],–,12.5 µg/mL,6.25 µg/mL,–
CCCON=C(C(C)C)C1(C(O)(Cn2cncn2)c2ccc(F)cc2F)CC1 (centres unmarked) [Example 42],–,25 µg/mL,25 µg/mL,–
"COC(OC)ON=C(C(C)C)C1(C(O)(Cn2cncn2)c2ccc(F)cc2F)CC1 (centres unmarked) [Example 72, 1-[1-[1-(2,4-difluorophenyl)-1-hydroxy-2-(1H-1,2,4-triazol-1-yl)ethyl]cyclopropyl]-2-methyl-1-propanone O-(dimethoxymethyl)oxime]",13.5 mg/kg,–,–,–
C#CCON=C(CC)C1(C(O)(Cn2cncn2)c2ccc(F)cc2F)CC1 (centres unmarked) [Example 51],11.3 mg/kg,3.13 µg/mL,3.13 µg/mL,–
"COCON=C(C(C)C)C1(C(O)(Cn2cncn2)c2ccc(F)cc2F)CC1 (single isomer, unassigned; (-)) [Example 4, (-)-1-[1-[1-(2,4-difluorophenyl)-1-hydroxy-2-(1H-1,2,4-triazol-1-yl)ethyl]cyclopropyl]-2-methyl-1-propanone O-(methoxymethyl)oxime]",–,–,–,MIC [2]: 12.5 µg/mL; MIC [3]: 12.5 µg/mL
CCC(=NOCc1ccncc1)C1(C(O)(Cn2cncn2)c2ccc(F)cc2F)CC1 (centres unmarked) [Example 59],10.7 mg/kg,6.25 µg/mL,6.25 µg/mL,–
"COC(C)(OC)ON=C(C(C)C)C1(C(O)(Cn2cncn2)c2ccc(F)cc2F)CC1 (centres unmarked) [Example 73, 1-[1-[1-(2,4-difluorophenyl)-1-hydroxy-2-(1H-1,2,4-triazol-1-yl)ethyl]cyclopropyl]-2-methyl-1-propanone O-(1-dimethoxyethyl)oxime]",5.8 mg/kg,–,–,–
COCON=C(C1CC1)C1(C(O)(Cn2cncn2)c2ccc(F)cc2F)CC1 (centres unmarked) [Example 15],–,12.5 µg/mL,12.5 µg/mL,–
"CON=CC(C)(C)C(O)(Cn1cncn1)c1ccc(Cl)cc1 (racemic) [Bay R 3783, (±)-3-(4-chlorophenyl)-2,2-dimethyl-3-hydroxy-4-(1,2,4-triazole-1-yl)butanol-oxime O-methylether]",–,–,–,hepatotoxicity as a side effect [6]: has hepatotoxicity as a side effect
"OC(Cn1cncn1)(Cn1cncn1)c1ccc(F)cc1F [Fluconazole, fluconazole, reference compound]",11.7 mg/kg,> 100 µg/mL,> 100 µg/mL,"ED50 [4]: > 100 mg/kg; antimycotic action in Aspergillus fumigatus infected animal models ([4]; doses up to 100 mg/kg, oral, mice): did not show any antimycotic action; ED50 [7]: 54.4 mg/kg"
"COCON=C(C(C)C)C1(C(O)(Cn2cncn2)c2ccc(F)cc2F)CC1 (centres unmarked) [Example 1, 1-[1-[1-(2,4-difluorophenyl)-1-hydroxy-2-(1H-1,2,4-triazol-1-yl)ethyl]cyclopropyl]-2-methyl-1-propanone O-(methoxymethyl)oxime]",–,25 µg/mL,25 µg/mL,ED50 [4]: 30.3 mg/kg; evidence for abnormality [5]: no evidence for abnormality; ED50 [7]: 4.9 mg/kg
"CC(C)C(=NOCCBr)C1(C(O)(Cn2cncn2)c2ccc(F)cc2F)CC1 (centres unmarked) [Example 44, 1-[1-[1-(2,4-difluorophenyl)-1-hydroxy-2-(1H-1,2,4-triazol-1-yl)ethyl]cyclopropyl]-2-methyl-1-propanone O-(2-bromoethyl)oxime]",14.6 mg/kg,12.5 µg/mL,12.5 µg/mL,–

SMILES,ED50 [1],"MIC [2, 9]","MIC [3, 10]",other results
"CC(C)C(=NOCn1cncn1)C1(C(O)(Cn2cncn2)c2ccc(F)cc2F)CC1 (centres unmarked) [Example 30, 1-[1-[1-(2,4-difluorophenyl)-1-hydroxy-2-(1H-1,2,4-triazol-1-yl)ethyl]cyclopropyl]-2-methyl-1-propanone O-[(1H-1,2,4-triazol-1-yl)methyl]oxime]",–,–,–,ED50 [4]: 43.4 mg/kg; evidence for abnormality [5]: no evidence for abnormality; solubility [8]: good enough solubility to be useful as injections
CCC(=NOC)C(C)(C)C(O)(Cn1cncn1)c1ccc(F)cc1F (centres unmarked) [Example 22],–,3.13 µg/mL,1.56 µg/mL,–
CSCON=C(C(C)C)C1(C(O)(Cn2cncn2)c2ccc(F)cc2F)CC1 (centres unmarked) [Example 41],–,12.5 µg/mL,12.5 µg/mL,–
CCC(=NOCSC)C1(C(O)(Cn2cncn2)c2ccc(F)cc2F)CC1 (centres unmarked) [Example 53],13.5 mg/kg,3.13 µg/mL,1.56 µg/mL,–
CC(C)C(=NOCC#N)C1(C(O)(Cn2cncn2)c2ccc(F)cc2F)CC1 (centres unmarked) [Example 40],–,12.5 µg/mL,12.5 µg/mL,–
"COC(C)ON=C(C(C)C)C1(C(O)(Cn2cncn2)c2ccc(F)cc2F)CC1 (centres unmarked) [Example 75, 1-[1-[1-(2,4-difluorophenyl)-1-hydroxy-2-(1H-1,2,4-triazol-1-yl)ethyl]cyclopropyl]-2-methyl-1-propanone O-(1-methoxyethyl)oxime]",8.6 mg/kg,–,–,–
CC(=NO)C(C)(C)C(O)(Cn1cncn1)c1ccc(F)cc1F (centres unmarked) [Example 29],–,12.5 µg/mL,6.25 µg/mL,–
"COC(C)(C)ON=C(C(C)C)C1(C(O)(Cn2cncn2)c2ccc(F)cc2F)CC1 (centres unmarked) [Example 74, 1-[1-[1-(2,4-difluorophenyl)-1-hydroxy-2-(1H-1,2,4-triazol-1-yl)ethyl]cyclopropyl]-2-methyl-1-propanone O-(1-methoxy-1-methylethyl)oxime]",8.9 mg/kg,–,–,–
"CCC(C)n1ncn(-c2ccc(N3CCN(c4ccc(OCC5COC(Cn6cncn6)(c6ccc(Cl)cc6Cl)O5)cc4)CC3)cc2)c1=O (centres unmarked) [Itraconazole, itraconazole, reference compound]",–,–,–,ED50 [4]: > 100 mg/kg
CON=C(C)C(C)(C)C(O)(Cn1cncn1)c1ccc(F)cc1F (centres unmarked) [Example 21],–,3.13 µg/mL,3.13 µg/mL,–
CCCC(=NOCOC)C1(C(O)(Cn2cncn2)c2ccc(F)cc2F)CC1 (centres unmarked) [Example 8],–,25 µg/mL,12.5 µg/mL,ED50 [4]: 27.7 mg/kg
CCON=C(C(C)C)C1(C(O)(Cn2cncn2)c2ccc(F)cc2F)CC1 (centres unmarked) [Example 38],–,12.5 µg/mL,12.5 µg/mL,–
CCCC(=NOCn1cncn1)C1(C(O)(Cn2cncn2)c2ccc(F)cc2F)CC1 (centres unmarked) [Example 46],15.7 mg/kg,–,–,–
CCCCON=C(CC)C1(C(O)(Cn2cncn2)c2ccc(F)cc2F)CC1 (centres unmarked) [Example 56],14.7 mg/kg,6.25 µg/mL,6.25 µg/mL,–
"CON=C(C(C)C)C1(C(O)(Cn2cncn2)c2ccc(F)cc2F)CC1 (single isomer, unassigned; (-)) [Example 6, (-)-1-[1-[1-(2,4-difluorophenyl)-1-hydroxy-2-(1H-1,2,4-triazol-1-yl)ethyl]cyclopropyl]-2-methyl-1-propanone O-methyl oxime]",–,3.13 µg/mL,3.13 µg/mL,–
